{
  "source": "patent US5418160A",
  "about": "“Cloned cell line expressing rat β3A adrenergic receptor” (The United States as represented by the Secretary of the …, priority 1991, dated 1995)",
  "key": {"[1]": {"target": "T1, fat cell β receptor (β3A -adrenergic receptor) (Rattus norvegicus, UniProt P26255)", "T1 construct": "expressed in transfected cells", "T1 sequence (P26255 whole entry, the tested form may be a part)": "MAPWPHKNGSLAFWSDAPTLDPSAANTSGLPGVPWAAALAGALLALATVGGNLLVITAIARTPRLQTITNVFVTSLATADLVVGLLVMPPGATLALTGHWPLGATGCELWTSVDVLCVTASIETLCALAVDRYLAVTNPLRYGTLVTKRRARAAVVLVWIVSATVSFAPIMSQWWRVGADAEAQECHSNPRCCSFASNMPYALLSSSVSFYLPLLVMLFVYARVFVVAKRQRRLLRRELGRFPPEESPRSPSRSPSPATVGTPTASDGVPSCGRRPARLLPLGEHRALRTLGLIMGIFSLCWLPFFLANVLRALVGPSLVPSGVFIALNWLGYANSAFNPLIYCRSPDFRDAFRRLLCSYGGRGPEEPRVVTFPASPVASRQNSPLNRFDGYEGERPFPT", "assay": "Inhibition of BRL 37344-induced cAMP accumulation in transfected CHO cells", "type": "cell-based", "conditions": "read-out: inhibition of BRL 37344-induced cAMP accumulation", "description": "Using a protocol for cotransfection of CHO cells (a 1.5 kb fragment was excised from pBluescript using Saci (present in the multiple cloning site of the vector) and BamHI and inserted into the Sac/BamH/sites of PSVL (Pharmacie). CHO-K1 cells were cotransfected with pSVL and pMSVneo (neomycin resistance plasmid) F. Z. Chung, C. D. Wang, P. C. Potter, J. C. Venter and C. M. Fraser, J. Biol. Chem. 263, 4052 (1988) using the CaPO4 precipitation technique. Stable transfectants were obtained by growth of the cells in culture medium containing Geneticin (500 μg/ml); colonies derived from single cells were isolated and expanded."}, "[2]": {"target": "β2 -adrenergic receptors", "conditions": "read-out: KD for [125I]-ICYP binding to β2-adrenergic receptors; cited from earlier work"}, "[3]": {"target": "β1 -adrenergic receptors", "conditions": "read-out: KD for [125I]-ICYP binding to β1-adrenergic receptors; cited from earlier work"}, "[4]": {"target": "β3 -adrenergic receptor", "conditions": "read-out: KD reported for [125I]-ICYP binding to the β3-adrenergic receptor; Emorine et al.; cited from earlier work"}, "[5]": {"test_system": "brown adipocytes", "conditions": "Arch et al., read-out: EC50 for increases in lipolysis; cited from earlier work"}},
  "note": "pEC50, pKd: −log10 of the molar value. Where two headings read alike, the source gives them in different places.",
  "data": [
    {"smiles": "C=CCc1ccccc1OCC(O)CNC(C)C", "note": "(centres unmarked) [alprenolol]", "values": [
      {"measurement": "inhibition at 100 µM", "setting": "[1]; antagonist at 10^-4 M, transfected CHO cells", "result": 52, "unit": "%"}
    ]},
    {"smiles": "COCCc1ccc(OCC(O)CNC(C)C)cc1", "note": "(centres unmarked) [metoprolol]", "values": [
      {"measurement": "inhibition at 100 µM", "setting": "[1]; CHO", "result": 70, "unit": "%"}
    ]},
    {"smiles": "CC(C)NCC(O)COc1ccc(CC(N)=O)cc1", "note": "(centres unmarked) [atenolol]", "values": [
      {"measurement": "inhibition at 100 µM", "setting": "[1]; CHO", "result": 30, "unit": "%"}
    ]},
    {"smiles": "CC(C)(C)NCC(O)COc1cccc2[nH]c(C#N)c([125I])c12", "note": "(centres unmarked) [[^125 1]-ICYP, [^125 1]-iodocyanopindolol]", "values": [
      {"measurement": "pKd", "setting": "[2]", "result": 10.52},
      {"measurement": "pKd", "setting": "[3]", "result": 10.96},
      {"measurement": "pKd", "setting": "[4]", "result": 9.30}
    ]},
    {"smiles": "CC(Cc1ccc(OCC(=O)O)cc1)NCC(O)c1cccc(Cl)c1", "note": "(centres unmarked) [BRL 37344]", "values": [
      {"measurement": "pEC50", "setting": "[5]", "result": 8.77}
    ]},
    {"smiles": "CC(C)NCC(O)c1ccc(O)c(O)c1", "note": "(centres unmarked) [isoproterenol]", "values": [
      {"measurement": "pEC50", "setting": "[5]", "result": 8.10}
    ]}
  ]
}
